Assay [1] addresses Insulin-like growth factor 1 receptor (Homo sapiens) (UniProt P08069). In words: […] against IGF1R at 10 uM by HTRF method.
In assay [2] the target is T1, Vascular endothelial growth factor receptor 2 (Homo sapiens, UniProt P35968). Put plainly: Inhibition of VEGFR2 by enzymatic assay.
In assay [3] the target is Vascular endothelial growth factor receptor 1 (Homo sapiens, UniProt P17948). In words: Inhibition of VEGFR1 by enzymatic assay.
Assay [4] concerns the target T1, Vascular endothelial growth factor receptor 2. In words: Inhibition of VEGFR2 in 293 adenovirus transfected kidney cells by cell-based ELISA assay.
In assay [5] the target is Receptor-type tyrosine-protein kinase FLT3 (Homo sapiens) (UniProt P36888). Put plainly: Inhibition of Flt3 at 10 uM by HTRF method. Set-up: scale not given: the % may be the effect or the level left. (In general: Time-resolved FRET reads energy transfer from a long-lived donor to a nearby acceptor.)
The target of assay [6] is Epidermal growth factor receptor (Homo sapiens) (UniProt P00533). Put plainly: […] against ErbB1 at 10 uM by HTRF method.
Assay [7] concerns the target Receptor tyrosine-protein kinase erbB-2 (Homo sapiens) (UniProt P04626). Put plainly: […] against ErbB2 at 10 uM by HTRF method.
Assay [8] has as its target T2, Ephrin type-B receptor 4 (Homo sapiens) (UniProt P54760).
T2 sequence (whole entry): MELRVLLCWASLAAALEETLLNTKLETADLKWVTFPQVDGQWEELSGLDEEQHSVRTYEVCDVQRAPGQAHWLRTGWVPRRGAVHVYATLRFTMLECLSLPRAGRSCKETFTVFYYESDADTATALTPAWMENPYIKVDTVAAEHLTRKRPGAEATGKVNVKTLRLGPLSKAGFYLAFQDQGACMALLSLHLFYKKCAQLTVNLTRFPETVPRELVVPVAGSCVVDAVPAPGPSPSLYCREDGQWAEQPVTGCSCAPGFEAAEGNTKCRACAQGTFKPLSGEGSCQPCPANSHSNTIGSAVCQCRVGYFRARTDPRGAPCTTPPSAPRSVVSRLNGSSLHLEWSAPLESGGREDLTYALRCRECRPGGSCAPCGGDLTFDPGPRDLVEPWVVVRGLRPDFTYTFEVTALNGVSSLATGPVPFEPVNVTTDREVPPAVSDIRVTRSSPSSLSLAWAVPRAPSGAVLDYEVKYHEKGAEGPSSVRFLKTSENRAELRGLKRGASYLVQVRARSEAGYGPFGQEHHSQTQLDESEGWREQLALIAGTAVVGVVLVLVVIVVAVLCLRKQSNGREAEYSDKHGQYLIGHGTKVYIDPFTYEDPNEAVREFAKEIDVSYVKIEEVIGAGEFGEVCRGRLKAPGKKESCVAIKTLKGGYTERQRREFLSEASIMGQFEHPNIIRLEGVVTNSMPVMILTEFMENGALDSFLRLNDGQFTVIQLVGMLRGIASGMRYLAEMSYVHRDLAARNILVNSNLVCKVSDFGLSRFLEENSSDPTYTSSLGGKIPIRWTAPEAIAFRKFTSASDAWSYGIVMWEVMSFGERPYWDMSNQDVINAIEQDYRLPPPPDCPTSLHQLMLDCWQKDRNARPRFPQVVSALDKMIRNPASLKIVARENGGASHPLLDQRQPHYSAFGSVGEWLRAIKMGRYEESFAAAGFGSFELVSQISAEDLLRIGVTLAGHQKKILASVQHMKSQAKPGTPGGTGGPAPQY
In words: Percent inhibition against EphB4 at 10 uM by HTRF method. Set-up: scale not given: the % may be the effect or the level left.

The target in assay [9] is Hepatocyte growth factor receptor (Homo sapiens) (UniProt P08581). In words: Percent inhibition against c-Met at 10 uM by HTRF method. Set-up: scale not given: the % may be the effect or the level left.
Assay [10] deals with cAMP-dependent protein kinase (PKA) (Homo sapiens) (UniProt P22694+P17612+P22612). Put plainly: Inhibition against PKA at 10 uM by HTRF method. It is filed as protein assay. Details: scale not given: the % may be the effect or the level left.
Assay [11] has as its target Glycogen synthase kinase-3 beta (Homo sapiens) (UniProt P49841). In words: Inhibition against GSK3-beta at 10 uM by HTRF method. Set-up: scale not given: the % may be the effect or the level left.
The target in assay [12] is RAC-alpha serine/threonine-protein kinase (Homo sapiens) (UniProt P31749). In words: […] against PKB/Akt at 10 uM by HTRF method.
Assay [13] has as its target Bcr/Abl fusion protein (Homo sapiens) (UniProt P00519+P11274). Put plainly: Inhibition of bcr-Abl at 10 uM by HTRF method. The format is protein assay. Details: scale not given: the % may be the effect or the level left.
For assay [14], the target named is Cyclin-dependent kinase 2 (Homo sapiens) (UniProt P24941). In words: […] against Cdk2 at 10 uM by HTRF method.
The target in assay [15] is Cyclin-dependent kinase 5 (Homo sapiens) (UniProt Q00535). Put plainly: […] against Cdk5 at 10 uM by HTRF method.
Assay [16] addresses Fibroblast growth factor receptor 1 (Homo sapiens) (UniProt P11362). Put plainly: Percent inhibition against FGFR1 at 10 uM by HTRF method. Set-up: scale not given: the % may be the effect or the level left.

Sequence of RAC-alpha serine/threonine-protein kinase (Homo sapiens) (P31749 whole entry, the tested form may be a part): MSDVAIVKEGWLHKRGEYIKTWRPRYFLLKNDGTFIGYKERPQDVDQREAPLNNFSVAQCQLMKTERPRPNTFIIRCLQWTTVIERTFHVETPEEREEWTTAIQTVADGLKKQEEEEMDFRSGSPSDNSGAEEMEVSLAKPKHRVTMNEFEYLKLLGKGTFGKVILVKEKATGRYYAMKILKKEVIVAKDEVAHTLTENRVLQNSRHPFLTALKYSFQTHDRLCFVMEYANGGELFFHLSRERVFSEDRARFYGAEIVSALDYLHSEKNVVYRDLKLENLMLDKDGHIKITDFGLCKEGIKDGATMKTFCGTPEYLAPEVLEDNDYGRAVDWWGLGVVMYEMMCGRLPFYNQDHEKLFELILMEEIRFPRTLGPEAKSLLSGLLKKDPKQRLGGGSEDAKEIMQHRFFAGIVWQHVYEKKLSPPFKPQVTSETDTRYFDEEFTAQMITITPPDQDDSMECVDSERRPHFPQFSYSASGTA
Sequence of Cyclin-dependent kinase 5 (Homo sapiens) (Q00535 whole entry, looked up): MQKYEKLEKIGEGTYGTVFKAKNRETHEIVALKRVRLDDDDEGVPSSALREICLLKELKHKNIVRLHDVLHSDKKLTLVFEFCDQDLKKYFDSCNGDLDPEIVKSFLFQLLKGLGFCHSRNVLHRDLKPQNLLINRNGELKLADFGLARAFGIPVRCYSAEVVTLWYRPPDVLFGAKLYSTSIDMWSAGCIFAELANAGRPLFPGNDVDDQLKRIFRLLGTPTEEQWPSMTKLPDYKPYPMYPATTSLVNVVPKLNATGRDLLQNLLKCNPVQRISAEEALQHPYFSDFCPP
Sequence of Vascular endothelial growth factor receptor 1 (P17948 whole entry): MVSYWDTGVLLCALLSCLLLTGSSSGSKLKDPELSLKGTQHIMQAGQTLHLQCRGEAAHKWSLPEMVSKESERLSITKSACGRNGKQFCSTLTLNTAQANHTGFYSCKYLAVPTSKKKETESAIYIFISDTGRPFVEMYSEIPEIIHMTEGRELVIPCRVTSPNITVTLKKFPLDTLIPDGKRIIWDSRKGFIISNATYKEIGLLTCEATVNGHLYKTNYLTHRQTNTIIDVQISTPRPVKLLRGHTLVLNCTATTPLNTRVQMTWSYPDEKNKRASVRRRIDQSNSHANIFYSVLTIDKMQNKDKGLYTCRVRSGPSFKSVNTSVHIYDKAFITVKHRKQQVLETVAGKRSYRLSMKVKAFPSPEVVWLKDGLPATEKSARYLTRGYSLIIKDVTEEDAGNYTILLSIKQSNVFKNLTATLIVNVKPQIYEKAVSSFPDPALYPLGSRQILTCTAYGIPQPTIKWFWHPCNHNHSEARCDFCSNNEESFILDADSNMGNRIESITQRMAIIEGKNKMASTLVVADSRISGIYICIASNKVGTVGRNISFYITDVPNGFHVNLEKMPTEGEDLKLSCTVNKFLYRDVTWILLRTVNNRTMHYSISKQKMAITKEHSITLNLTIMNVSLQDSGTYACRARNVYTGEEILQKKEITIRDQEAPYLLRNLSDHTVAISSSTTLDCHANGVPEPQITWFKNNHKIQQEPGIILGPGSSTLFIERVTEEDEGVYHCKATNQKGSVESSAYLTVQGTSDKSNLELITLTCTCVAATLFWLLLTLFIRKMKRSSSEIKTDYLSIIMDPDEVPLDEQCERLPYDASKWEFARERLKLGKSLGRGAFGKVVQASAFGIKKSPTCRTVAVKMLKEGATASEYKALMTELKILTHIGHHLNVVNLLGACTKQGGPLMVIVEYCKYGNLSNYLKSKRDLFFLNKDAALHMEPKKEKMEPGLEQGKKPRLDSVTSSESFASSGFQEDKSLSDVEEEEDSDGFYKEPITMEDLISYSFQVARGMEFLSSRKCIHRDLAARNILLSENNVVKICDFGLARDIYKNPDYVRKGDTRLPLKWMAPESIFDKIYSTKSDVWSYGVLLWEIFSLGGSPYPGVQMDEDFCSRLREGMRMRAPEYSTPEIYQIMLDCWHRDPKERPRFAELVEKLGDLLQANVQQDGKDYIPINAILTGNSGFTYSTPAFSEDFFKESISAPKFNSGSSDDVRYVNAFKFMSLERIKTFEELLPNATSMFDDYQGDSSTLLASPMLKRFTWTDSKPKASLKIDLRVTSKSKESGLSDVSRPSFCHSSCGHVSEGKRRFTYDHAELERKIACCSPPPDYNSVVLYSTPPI
Sequence of Receptor-type tyrosine-protein kinase FLT3 (Homo sapiens) (P36888 whole entry): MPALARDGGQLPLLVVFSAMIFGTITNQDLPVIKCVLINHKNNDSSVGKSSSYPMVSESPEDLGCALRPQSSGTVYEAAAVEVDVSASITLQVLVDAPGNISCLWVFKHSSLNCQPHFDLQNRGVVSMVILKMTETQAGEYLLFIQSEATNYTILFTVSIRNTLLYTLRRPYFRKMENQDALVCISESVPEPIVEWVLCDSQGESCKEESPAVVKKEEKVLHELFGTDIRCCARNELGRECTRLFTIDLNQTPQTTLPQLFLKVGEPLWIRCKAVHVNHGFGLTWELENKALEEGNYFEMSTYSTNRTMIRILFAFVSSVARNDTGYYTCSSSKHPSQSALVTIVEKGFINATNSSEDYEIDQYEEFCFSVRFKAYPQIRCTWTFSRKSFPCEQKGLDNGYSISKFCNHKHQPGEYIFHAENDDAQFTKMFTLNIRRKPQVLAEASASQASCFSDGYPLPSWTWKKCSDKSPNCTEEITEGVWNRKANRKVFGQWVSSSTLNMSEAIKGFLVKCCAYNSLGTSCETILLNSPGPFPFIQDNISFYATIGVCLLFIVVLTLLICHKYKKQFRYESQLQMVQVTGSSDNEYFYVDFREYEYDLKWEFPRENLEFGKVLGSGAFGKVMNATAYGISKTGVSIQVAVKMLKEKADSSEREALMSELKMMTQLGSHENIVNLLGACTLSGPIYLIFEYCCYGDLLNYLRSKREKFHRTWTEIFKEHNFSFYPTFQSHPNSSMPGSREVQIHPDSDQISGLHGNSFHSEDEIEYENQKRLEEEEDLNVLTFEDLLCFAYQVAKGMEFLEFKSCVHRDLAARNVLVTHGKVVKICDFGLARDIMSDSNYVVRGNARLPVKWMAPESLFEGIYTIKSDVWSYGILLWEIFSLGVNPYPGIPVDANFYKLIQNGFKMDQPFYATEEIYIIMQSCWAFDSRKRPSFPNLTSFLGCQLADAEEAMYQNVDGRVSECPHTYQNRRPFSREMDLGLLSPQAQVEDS
Sequence of Epidermal growth factor receptor (Homo sapiens) (P00533 whole entry): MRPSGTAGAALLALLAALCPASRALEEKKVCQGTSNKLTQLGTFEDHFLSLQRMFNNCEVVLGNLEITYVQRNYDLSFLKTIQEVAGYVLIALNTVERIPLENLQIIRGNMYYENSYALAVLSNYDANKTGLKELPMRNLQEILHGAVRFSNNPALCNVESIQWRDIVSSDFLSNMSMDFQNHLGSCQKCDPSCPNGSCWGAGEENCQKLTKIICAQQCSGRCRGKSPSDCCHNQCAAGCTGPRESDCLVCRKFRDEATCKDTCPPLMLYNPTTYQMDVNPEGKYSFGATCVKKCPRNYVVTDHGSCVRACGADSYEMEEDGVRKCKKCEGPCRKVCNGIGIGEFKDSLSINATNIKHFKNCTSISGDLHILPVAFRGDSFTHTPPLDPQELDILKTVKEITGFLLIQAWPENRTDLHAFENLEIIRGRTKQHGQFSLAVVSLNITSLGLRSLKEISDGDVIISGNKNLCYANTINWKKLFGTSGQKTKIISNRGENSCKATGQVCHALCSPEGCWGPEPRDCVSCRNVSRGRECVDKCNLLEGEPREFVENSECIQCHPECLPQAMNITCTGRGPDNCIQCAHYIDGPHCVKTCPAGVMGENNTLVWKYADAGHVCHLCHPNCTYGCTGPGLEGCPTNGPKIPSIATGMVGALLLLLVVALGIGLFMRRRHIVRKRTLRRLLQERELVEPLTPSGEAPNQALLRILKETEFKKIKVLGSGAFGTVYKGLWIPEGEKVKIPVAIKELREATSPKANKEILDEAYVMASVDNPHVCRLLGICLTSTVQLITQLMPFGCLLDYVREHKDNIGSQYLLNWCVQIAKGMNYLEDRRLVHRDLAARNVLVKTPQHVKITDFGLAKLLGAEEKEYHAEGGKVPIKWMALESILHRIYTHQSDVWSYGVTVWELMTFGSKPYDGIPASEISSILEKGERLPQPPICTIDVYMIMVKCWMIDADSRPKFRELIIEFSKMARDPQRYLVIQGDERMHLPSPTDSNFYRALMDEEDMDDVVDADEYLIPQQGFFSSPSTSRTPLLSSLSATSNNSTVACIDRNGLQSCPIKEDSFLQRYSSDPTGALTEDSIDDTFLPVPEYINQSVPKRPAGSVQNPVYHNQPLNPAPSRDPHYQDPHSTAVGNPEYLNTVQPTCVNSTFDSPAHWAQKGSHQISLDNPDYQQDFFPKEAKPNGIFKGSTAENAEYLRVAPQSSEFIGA
Sequence of Glycogen synthase kinase-3 beta (Homo sapiens) (P49841 whole entry, looked up): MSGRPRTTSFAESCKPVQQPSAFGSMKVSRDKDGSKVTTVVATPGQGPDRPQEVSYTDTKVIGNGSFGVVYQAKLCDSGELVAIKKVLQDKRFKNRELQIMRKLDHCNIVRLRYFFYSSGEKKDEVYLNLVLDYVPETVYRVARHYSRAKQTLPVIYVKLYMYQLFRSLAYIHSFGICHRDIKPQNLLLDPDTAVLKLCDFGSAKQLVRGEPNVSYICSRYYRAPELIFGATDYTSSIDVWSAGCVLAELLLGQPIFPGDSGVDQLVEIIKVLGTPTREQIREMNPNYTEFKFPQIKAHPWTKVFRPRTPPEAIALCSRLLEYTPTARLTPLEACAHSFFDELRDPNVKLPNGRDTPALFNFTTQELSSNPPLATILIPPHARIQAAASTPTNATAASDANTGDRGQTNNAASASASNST

Regarding `Cn1cnc(NCc2cccc3ncccc23)c1-c1nnc(Nc2ccc(Cl)cc2)o1`, the Activity in assay [1], in assay [5], in [7], in assay [8], in assay [9] and in [10] was under 30% throughout. Moreover, the Activity in [11], in [12], in [13], in assay [15] and in assay [16] was under 30% in each case. In addition, the IC50 in assay [2] was 3540 nM; in assay [3] it was over 10000 nM; in assay [4] it was over 10000 nM. Further, the Percent inhibition in [6] and in assay [14] was under 30% each time.

In the case of `Cn1cnc(NCc2ccc(F)c(F)c2)c1-c1nnc(Nc2ccc(Cl)cc2)o1`, the Activity in [1], in assay [5], in assay [7], in assay [8], in assay [9] and in assay [10] was under 30% each time. The Activity in [11], in assay [12], in assay [13], in assay [15] and in assay [16] was under 30% throughout. The IC50 in [2] amounted to 1860 nM; in [3] it was 3310 nM; in assay [4], 5650 nM. The Percent inhibition in assay [6] and in [14] was under 30% each time.

Turning to `Cn1cnc(NCc2ccncc2)c1-c1nnc(Nc2ccc(C(C)(C)C)cc2)o1`, the Activity in assay [1], in [5], in assay [7], in [8], in [9] and in [10] was under 30% in each case. For the same compound, the Activity in assay [11], in assay [12], in assay [13], in assay [15] and in assay [16] was under 30% each time. In addition, the results for the IC50 in assay [2], in assay [3] and in [4] were 380 nM, 890 nM and 1050 nM, respectively. The Percent inhibition in [6] and in [14] was under 30% each time.

In the case of `Cn1cnc(NCc2ccncc2)c1-c1nnc(NCc2ccc3c(c2)OCO3)o1`, the Activity in [1], in [5], in [7], in [8], in assay [9] and in [10] was under 30% in each case. In addition, the Activity in assay [11], in assay [12], in assay [13], in assay [15] and in assay [16] was under 30% each time. Besides, the IC50 in assay [2] is 140 nM; in [3] it was 440 nM; in assay [4], 270 nM. In addition, the Percent inhibition in assay [6] and in assay [14] was under 30% in each case.

Regarding `Cn1cnc(NCc2ccncc2)c1-c1nnc(Nc2ccc(Cl)c(C(F)(F)F)c2)o1`, the Activity in assay [1], in [5], in [7], in assay [8], in [9] and in assay [10] was under 30% each time. The Activity in [11], in assay [12], in assay [13], in assay [15] and in assay [16] was under 30% each time. In addition, the IC50 in assay [2] came to 43 nM; in [3] it was 510 nM; in assay [4], 100 nM. The Percent inhibition in assay [6] and in [14] was under 30% throughout.

`Cn1cnc(NCCc2ccc3c(c2)OCO3)c1-c1nnc(Nc2ccc(Cl)cc2)o1`: the Activity in [1], in assay [5], in [7], in assay [8], in assay [9] and in assay [10] was under 30% in each case. Also, the Activity in assay [11], in [12], in [13], in assay [15] and in [16] was under 30% each time. The IC50 in [2] was 960 nM; in assay [3], 1470 nM; in assay [4], over 10000 nM. For the same compound, the Percent inhibition in [6] and in [14] was under 30% in each case.

As to `Cn1cnc(NCc2ccc3ccccc3n2)c1-c1nnc(Nc2ccc(Cl)cc2)o1`, the Activity in assay [1], in assay [5], in [7], in assay [8], in assay [9] and in [10] was under 30% each time. Moreover, the Activity in assay [11], in [12], in assay [13], in assay [15] and in assay [16] was under 30% each time. Also, the IC50 in [2], in assay [3] and in assay [4] was over 10000 nM in each case. Also, the Percent inhibition in assay [6] and in [14] was under 30% throughout.

Regarding `Cc1ccc(Nc2nnc(-c3c(NCc4ccncc4)ncn3C)o2)c(F)c1`, the Activity in assay [1], in assay [5], in assay [7], in [8], in assay [9] and in assay [10] was under 30% in each case. Further, the Activity in [11], in assay [12], in assay [13], in [15] and in assay [16] was under 30% in each case. Also, the IC50 in assay [2] is 260 nM; in assay [3] it was 590 nM; in [4], 640 nM. The Percent inhibition in assay [6] and in [14] was under 30% in each case.

In the case of `CC(C)c1ccc(Nc2nnc(-c3c(NCc4ccncc4)ncn3C)o2)cc1`, the Activity in assay [1], in assay [5], in assay [7], in [8], in [9] and in assay [10] was under 30% in each case. Also, the Activity in assay [11], in assay [12], in [13], in assay [15] and in assay [16] was under 30% each time. In addition, the IC50 in [2] is 440 nM; in assay [3], 770 nM; in assay [4], 1150 nM. Further, the Percent inhibition in assay [6] and in assay [14] was under 30% in each case.

In the case of `Cn1cnc(NCc2ccc3[nH]ncc3c2)c1-c1nnc(Nc2ccc(Cl)cc2)o1`, the Activity in assay [1], in [5], in [7], in assay [8], in assay [9] and in assay [10] was under 30% throughout. Further, the Activity in assay [11], in [12], in assay [13], in assay [15] and in assay [16] was under 30% each time. In addition, the results for the IC50 in [2], in [3] and in [4] were 2370 nM, over 10000 nM and over 10000 nM, respectively. The Percent inhibition in assay [6] and in assay [14] was under 30% throughout.

Usually IC50 stands for the concentration that inhibits the measured activity by half.
